According to US12178846B2, “Methods of using gap junctions as therapeutic targets for the treatment of degenerative disorders of the retina” (The Research Foundation for The State University of New York, priority 2014, dated 2024):

Key:
[1] = system: cells in the GCL of mouse retinas; test: NMDA-induced excitotoxic cell death in the GCL of retina-eyecups; assay type: cell-based
Procedure: All animal procedures were in compliance with the NIH Guide for the Care and Use of Laboratory Animals and approved by the Institutional Animal Care and Use Committees at SUNY College of Optometry. Experiments were performed on retinas of wild type (WT), connexin knockout (KO) mice (Cx36^−/−, Cx45^−/−, and Cx36^−/−/45^−/− dKO), and their heterozygous (Het) littermates. The methods used to impale and label neurons have been described previously (Hu et al., J Neurosci 23:[…] (2003); Völgyi et al., Journal of Comparative Neurology 512:664-687 (2009)). Briefly, flattened retina-eyecups were placed in a superfusion chamber, which was mounted on the stage of a BX51WI light microscope (Olympus) within a light-tight Faraday cage. […] The retina-eyecups were superfused with a modified, oxygenated Ames medium maintained at 35° C.
Various methods were employed to produce cell death. (1) Single cell apoptosis: CytC was injected into individual RGCs or Müller cells for 15 minutes after which retinas were incubated for 4 hours in oxygenated Ames medium before fixation. After streptavidin histology, apoptotic cells were detected with an anti-active caspase 3 antibody or with Terminal deoxynucleotidyl transferase dUTP nick end labeling (TUNEL) staining. (2) Excitotoxicity: To assess the contribution of GJs to cell death within populations of RGCs and amacrine cells we conducted parallel experiments in which retinas were preincubated for 20 minutes in normal Ames medium or in one containing the GJ blockers meclofenamic acid (MFA; 50 μM) or 18-beta-glycyrrhetinic acid (18Beta-GA; 25 μM). Both control and drug-treated retinas were then exposed for 1 hour to NMDA (100-300 μM) to induce excitotoxicity followed by 4 hours in the control Ames solution. (3) Retinal ischemia: Transient in vivo retinal ischemia was induced by introducing into the anterior chamber a 33-gauge needle attached to a saline-filled reservoir (0.9% sodium chloride) that was raised above the animal so as to increase intraocular pressure (IOP) to a level […]. MFA (2 μl, 500 μM) was administered intravitreally either 30 minutes before or 3 and 24 hours following the ischemic insult. […]
Apoptotic and necrotic cell death were assessed by cell counts following: (1) staining with Live/Death Viability Assay (calcein AM/ethidium homodimer (EthD) (Invitrogen); (2) TUNEL, or, (3) labeling for activated caspase 3. For population studies, dead cells were counted manually within 500×500 μm areas (5 areas per retina) from micrographs of whole-mounts using images acquired by confocal microscope. Nuclear cell counts were made per unit length (500 μm) of frozen retinal cross-sections labeled with propidium iodide (2 μg/ml).

[2] = system: RGCs in microbead-injected eyes; test: Microbead-induced experimental glaucoma; assay type: in vivo, mouse
Procedure: Experimental glaucoma in mice is induced by IOP elevation achieved by intracameral injections of 10 μm polystyrene microbeads (Invitrogen) as previously described (Chen H, et al., Invest Ophthalmol Vis Sci. 52:36-44 (2011)). The intracameral injections are made unilaterally with 2 μl of microbead suspension containing ˜7.2×106 beads using a glass micropipette attached to a microliter syringe. An equivalent volume of phosphate-buffered saline (PBS) is injected in contralateral eyes to serve as a control. Measurements of IOP are made with the commercially-available Tonolab tonometer (Colonial Medical Supply) and are performed weekly for up to 8 weeks after the microbeads injection. Measurements are made between […] and 12 PM, to minimize the effect of diurnal IOP variations. Six IOP measurements are made at each interval and averaged. Experimental glaucoma was induced by intracameral injections of polystyrene microbeads (Chen H, et al., Invest Ophthalmol Vis Sci. 52:36-44 (2011)) in one eye of wild type (WT) mice, connexin knockout (KO) mice and their […] (HET) control littermates, with sham injection of the second eye as control. IOP measurements were performed weekly and animals were sacrificed at 1, 4, or 8 weeks after initial bead injection. To access cell loss, RGCs and coupled ACs were retrogradely labeled with optic nerve injection of Neurobiotin and vertical retinal sections were counterstained with DAPI to determine overall nuclear counts. RGCs were also labeled by Brn3a antibody for identification. In addition to cell counts, overall retinal damage was assessed by GFAP expression. In some experiments gap junctions were blocked with meclofenamic acid (MFA) intravitreal weekly injections or genetically ablated in connexin KO mice (Cx36^−/−, Cx45^−/−, and Cx36^−/−/Cx45^−/− mice). Data are presented as mean±standard mean error. […] Statistical comparisons were assessed using Student's t-test. […]

## Cc1ccc(Cl)c(Nc2ccccc2C(=O)O)c1Cl [MFA, meclofenamic acid]
[1]
  cell viability, blocker alone: did not affect cell viability
[1]; retinas preincubated in 18Beta-GA 25 μM or MFA 50 μM, then NMDA 100-300 μM 1 h, vs NMDA alone, p<0.001
  cell death in the GCL induced by excitotoxicity: significantly reduced
[2]; MFA (50 μM) before and after bead injection, 8 weeks, control 50±1, untreated bead-injected 33±1, p>0.1 vs control
  RGC cell counts: 47±4
[2]; injection of MFA alone in control eyes
  RGC counts, MFA alone: no detectable effect
[2]; intravitreal MFA, microbead-injected eyes, 8 weeks
  loss of cells (RGC+dAC) in the GCL: prevents loss of cells in GCL
